We go through 35 compounds from ChEMBL document CHEMBL3108756, “Evaluation of aminohydantoins as a novel class of antimalarial agents” (ACS Med Chem Lett, 2014).

Each structure is given as a SMILES string.

This assay relates to Plasmodium falciparum. The experiment in a line: Antimalarial activity against chloroquine-sensitive Plasmodium falciparum 3D7 infected in […] after 72 hrs by SYBR Green I-based fluorescence method. In kind it is functional, organism-based. The conditions noted are these: 3D7, 72 h.
For `N=C1NC(c2ccccc2)(c2ccccc2)C(=O)N1Cc1ccccc1`, the IC50 – broadly, the midpoint of a concentration-inhibition curve – amounted to 8290 nM.

`COc1ccc(C2(c3ccc(OC)cc3)NC(=N)N(c3ccccc3)C2=O)cc1` displayed an IC50 of 100000 nM.

Take `N=C1NC(c2ccc(Cl)cc2)(c2ccc(Cl)cc2)C(=O)N1C1CCCCC1`: the IC50 came out at 1070 nM.

For the compound `COc1cccc(C2(c3ccccc3)NC(=N)N(C3CCCCC3)C2=O)c1` (racemic), the IC50 is 917 nM.

Consider `COc1ccc(C2(c3cccc(-c4cccnc4)c3)NC(=N)N(C3CCCCC3)C2=O)cc1` (racemic), for which the IC50 is 595 nM. This IC50 is about 1.5-fold lower than that of the compound before.

As for `COc1ccc(C2(c3ccc(OC)cc3)NC(=N)N(C(C)C)C2=O)cc1`, the IC50 was found to be 1660 nM.

The compound `COc1ccc(C2(c3ccc(OC)cc3)NC(=N)N(C3CCNCC3)C2=O)cc1` returned an IC50 above 5000 nM.

`COc1ccc(C2(c3cccc(-c4ccccc4)c3)NC(=N)N(C3CCCCC3)C2=O)cc1` (racemic) returned an IC50 of 1490 nM.

The compound `COc1ccc(C2(c3ccccc3)NC(=N)N(C3CCCCC3)C2=O)cc1` (racemic) returned an IC50 of 533 nM. This IC50 lies about 2.8-fold lower than the previous one.

`N=C1NC(c2ccccc2)(c2ccccc2)C(=O)N1C1CCCCC1`: the half-maximal inhibitory concentration (IC50) stood at 3850 nM. This IC50 lies about 7.2-fold higher than the previous one.

Consider `COc1ccc(C2(c3ccc(OC)cc3)NC(=N)N(Cc3ccccc3)C2=O)cc1`, for which the half-maximal inhibitory concentration (IC50) was 855 nM.

In the case of `COc1ccc(C2(c3ccc(OC)cc3)NC(=N)N(C3CCC(O)CC3)C2=O)cc1` (stereo not given), the IC50 was 14800 nM.

`COc1ccc(C2(c3cccc(-c4ccccn4)c3)NC(=N)N(C3CCCCC3)C2=O)cc1` (racemic) came in with an IC50 of 1810 nM.

The compound `Cc1ccc(C2(c3ccc(C)cc3)NC(=N)N(C3CCCCC3)C2=O)cc1` displayed an IC50 of 1260 nM.

The compound `COc1cccc(C2(c3cccc(-c4ccncc4)c3)NC(=N)N(C3CCCCC3)C2=O)c1` (racemic) returned a half-maximal inhibitory concentration (IC50) of 318 nM.

For `CCC(CN1C(=N)NC(c2ccc(OC)cc2)(c2ccc(OC)cc2)C1=O)c1ccccc1` (stereo not given), half-maximal inhibition (IC50) required 244 nM. The IC50 values of the last two compounds are within 1.5-fold of each other.

Regarding `CCCN1C(=N)NC(c2ccc(OC)cc2)(c2ccc(OC)cc2)C1=O`, inhibition was half-maximal at 1140 nM (IC50). This IC50 is about 4.7-fold higher than that of the compound before.

In the case of `COc1ccc(C2(c3ccc(OC)cc3)NC(=N)N(CCc3ccccc3)C2=O)cc1`, the 50% inhibitory concentration (IC50) turned out to be 2380 nM.

Consider `N=C1NC(c2ccccc2)(c2cccc(Oc3ccccc3)c2)C(=O)N1C1CCCCC1` (racemic), for which half-maximal inhibition (IC50) required 424 nM.

Turning to `COc1ccc(C2(c3ccc(OC)cc3)NC(=N)N(C3CCN(C(=O)OC(C)(C)C)CC3)C2=O)cc1`, the midpoint of inhibition, the IC50, lay at 436 nM.

In turn, `COc1ccc(C2(c3ccc(OC)cc3)NC(=N)N(C)C2=O)cc1` yielded an IC50 of 7920 nM.

`COc1ccc(C2(c3ccc(OC)cc3)NC(=N)N(CCCc3ccccc3)C2=O)cc1` came in with an IC50 of 512 nM. This IC50 lies about 15-fold lower than the previous one.

`COc1ccc(C2(c3ccc(OC)cc3)NC(=N)N(C3CCC3)C2=O)cc1` had a concentration for half-maximal inhibition (IC50) of 722 nM.

On to `COc1ccc(C2(c3ccc(OC)cc3)NC(=N)N(C3CCN(C)CC3)C2=O)cc1`, for which the IC50 came out at 697 nM.

`CCN1C(=N)NC(c2ccc(OC)cc2)(c2ccc(OC)cc2)C1=O` showed an IC50 of 3950 nM. Against the preceding compound, the IC50 is about 5.7-fold higher.

For `Cc1cccc(C2(c3cccc(C)c3)NC(=N)N(C3CCCCC3)C2=O)c1`, the half-maximal inhibitory concentration (IC50) turned out to be 533 nM.

For the compound `N=C1NC(c2ccc(OC(F)(F)F)cc2)(c2ccc(OC(F)(F)F)cc2)C(=O)N1C1CCCCC1`, 2200 nM corresponded to half-maximal inhibition (IC50).

Compound `N=C1NC(c2cccc(Cl)c2)(c2cccc(Cl)c2)C(=O)N1C1CCCCC1` registered a 50% inhibitory concentration (IC50) of 1060 nM.

Consider `COc1ccc(C2(c3ccc(OC)cc3)NC(=N)N(C3CCCC3)C2=O)cc1`, for which the midpoint of inhibition, the IC50, lay at 611 nM.

In turn, `N=C1NC(c2cccc(-c3cccnc3)c2)(c2cccc(-c3cccnc3)c2)C(=O)N1C1CCCCC1` showed a 50% inhibitory concentration (IC50) of 725 nM. This IC50 and that of the compound before are within 1.5-fold of each other.

As to `CC(C)(C)N1C(=N)NC(c2ccccc2)(c2ccccc2)C1=O`, the IC50 was above 100000 nM.

`CCOc1ccc(C2(c3ccc(OCC)cc3)NC(=N)N(C3CCCCC3)C2=O)cc1` gave an IC50 of 466 nM.

The compound `COc1ccc(C2(c3ccc(OC)cc3)NC(=N)N(C3CCCCCC3)C2=O)cc1` returned an IC50 of 427 nM.

Compound `COc1cccc(C2(c3cccc(-c4cccnc4)c3)NC(=N)N(C3CCCCC3)C2=O)c1` (racemic) gave an IC50 of 787 nM.

The compound `N=C1NC(c2ccccc2)(c2cccc(OCc3ccccc3)c2)C(=O)N1C1CCCCC1` (racemic) showed an IC50 of 641 nM.
